Results reported in patent publication US20240239848A1, “HOLOTHURIAN-DERIVED ACTIVE PEPTIDE WITH IMMUNE ACTIVITY, PREPARATION METHOD AND APPLICATION THEREOF” (BOHAI UNIVERSITY, priority 2023, published 2024).
No end group written: not given here.

Key:
Format in all cases: cell-based, mouse
IL-1β = IL-1β secretion of macrophage RAW264.7 induced by LPS (ELISA); conditions: LPS-induced RAW264.7, peptide 200 μg/mL
Procedure: (§1) (2) Influence of IIENAVQ on the secretion of cytokines (IL-1β, TNF-α) of macrophage RAW264.7 induced by LPS
(§2) Blank group: macrophage RAW264.7 cells are inoculated into a 96-well plate and cultured for 24 h.
(§3) Induced injury group: after the cells in the blank group are cultured, the cells are treated with 100 ng/mL LPS for 24 h, and then treated with different concentrations (50-200 μg/mL) of IIENAVQ for 24 h.
(§4) Negative control group: after cell culture in blank group, cells are treated with 100 ng/mL LPS for 24 h.
(§5) The cytokines of different components are determined by ELISA kit.
(§6) The final detection results of (1) and (2) are illustrated in FIG. 4A and FIG. 4B.

[1] = tested on: macrophage RAW264.7 induced by LPS; experiment: NO release from macrophage RAW264.7 induced by LPS (NO kit)
Procedure: (2) Influence of Synthetic Peptide on NO Release from Macrophage RAW264.7 Induced by LPS
as §2
Induced injury group: after cell culture, cells in blank group are treated with 100 ng/ml LPS for 24 h, and then treated with synthetic peptides with different concentrations (50-200 μg/mL) for 24 h.
as §4
The NO release amount of different components is measured by NO kit. After 24 hours of treatment with synthetic peptides with different concentrations, the NO release amount of macrophage RAW264.7 induced by LPS is shown in FIG. 3.

TNF-α = TNF-α secretion of macrophage RAW264.7 induced by LPS (ELISA); conditions: LPS-induced RAW264.7, peptide 200 μg/mL
Procedure: as §1, §2, §3, §4, §5, §6

macrophage RAW264.7 = experiment: Survival rate of macrophages RAW264.7 (CCK-8 method); conditions: RAW264.7, synthetic peptide 50-200 μg/mL, 24 h
Procedure: Blank group: Macrophages RAW264.7 are inoculated into 96-well plates and cultured for 24 h.
Sample group: synthetic peptides with different concentrations (50-200 μg/mL) are used for treating for 24 h.
The CCK-8 method is used to measure the absorbance values of different components, and the survival rate of macrophage RAW264.7 is calculated according to the absorbance values.

IIENAVQ [IIENAVQ]
inhibition rate of IL-1β secretion (IL-1β): 51.54% | secretion of cytokine IL-1β (IL-1β): 28.73 ± 1.12 pg/mL | release of NO from macrophages RAW264.7 induced by LPS, compared with LPS-negative control group ([1]; 100 ng/mL LPS 24 h, then peptide 50-200 μg/mL 24 h): significantly reduces | final concentration of NO ([1]; LPS-induced RAW264.7, peptide 200 μg/mL): 27.99 ± 0.33 µmol/L | inhibition rate of TNF-α secretion (TNF-α): 60.24% | secretion of cytokine TNF-α (TNF-α): 70.78 ± 5.55 pg/mL | cell survival rate (macrophage RAW264.7): 116.88%
